Source: article PMC7769008 (Journal of medicinal chemistry, 2020)
Where “and” joins values, the source holds several entries; their conditions need not be identical. Equal values may be shown once.

Experiments:
[1] = pH 7.4
[2] = tested on: HeLa cells; conditions: 100 μM
[3] = tested on: 45 receptors and channels; conditions: 10 μM; radioligand binding and functional assays
[4] = MLM incubation
[5] = Aqueous solubility
[6] = in vitro; conditions: PAMPA, pH 7.4
[7] = tested on: Plk1 localization to centrosomes and kinetochores; assay: Plk1 localization and spindle morphology by immunostaining in HeLa cells; format: cell-based; conditions: 100 μM, 12 h
[8] = mice, 20 mg/kg, IP, whole period of the experiment

For `CCCn1c(=O)c2ccccc2n2c(S)nnc12` [Compound 21, 4-Propyl-1-thioxo-2,4-dihydro-[1,2,4]triazolo[4,3-a]quinazolin-5(1H)-one], the “PAMPA” value [1] was 37.0 ×10⁻⁶ cm/s and 37 ×10⁻⁶ cm/s, the “ability to induce mitotic arrest and an antiproliferation effect” value (“ability” below) [2] was “lacked a detectable level of cellular response” and the potential off-target interactions [3] was “not detected”.
For `CCCCn1c(=O)c2ccccc2n2c(S)nnc12` [Compound 23, 4-Butyl-1-thioxo-2,4-dihydro-[1,2,4]triazolo[4,3-a]quinazolin-5(1H)-one], the “PAMPA” value [1] was 77.5 ×10⁻⁶ cm/s and the “major metabolite (LC–MS/MS)” value [4] was “glucuronidation is the major metabolite”.
In the case of `CCCn1c(=O)c2ccccc2n2c(=S)n(CN(C)C3CC3)nc12` [Compound 35, 2-((Cyclopropyl(methyl)amino)methyl)-4-propyl-1-thioxo-2,4-di-hydro-[1,2,4]triazolo[4,3-a]quinazolin-5(1H)-one], the “Solub. (μg/ml)” value [5] was “Insol”.
For `CCCn1c(=O)c2cc(F)ccc2n2c(=S)[nH]nc12` [Compound 64, 7-Fluoro-4-propyl-1-thioxo-2,4-dihydro-[1,2,4]triazolo[4,3-a]-quinazolin-5(1H)-one], the “PAMPA” value [1] was 195 ×10⁻⁶ cm/s and the “ability” value [2] was “lacked a detectable level of cellular response”.
In the case of `CN(C)CCn1c(=O)c2cc(F)ccc2n2c(=S)[nH]nc12` [Compound 70, 4-(2-(Dimethylamino)ethyl)-7-fluoro-1-thioxo-2,4-dihydro-[1,2,4]triazolo[4,3-a]quinazolin-5(1H)-one], the Papp [6] was 177 ×10⁻⁶ cm/s.
In the case of `O=C(Cc1ccc(Br)cc1)NCCCn1c(=O)c2cc(F)ccc2n2c(=S)[nH]nc12` [Compound 125, 2-(4-Bromophenyl)-N-(3-(7-fluoro-5-oxo-1-thioxo-1,2-dihydro-[1,2,4]triazolo[4,3-a]quinazolin-4(5H)-yl)propyl)acetamide], the “PAMPA” value [1] was 767 ×10⁻⁶ cm/s.
For `Cc1ccc(CC(=O)NCCCn2c(=O)c3cc(F)ccc3n3c(=S)[nH]nc23)cc1` [Compound 126, N-(3-(7-Fluoro-5-oxo-1-thioxo-1,2-dihydro-[1,2,4]triazolo[4,3-a]-quinazolin-4(5H)-yl)propyl)-2-(p-tolyl)acetamide], the “PAMPA” value [1] was 621 ×10⁻⁶ cm/s.
For `COc1ccccc1CC(=O)NCCCn1c(=O)c2cc(F)ccc2n2c(=S)[nH]nc12` [Compound 128, N-(3-(7-Fluoro-5-oxo-1-thioxo-1,2-dihydro-[1,2,4]triazolo[4,3-a]-quinazolin-4(5H)-yl)propyl)-2-(2-methoxyphenyl)acetamide], the “PAMPA” value [1] was 379 ×10⁻⁶ cm/s.
Compound `COc1cccc(CC(=O)NCCCn2c(=O)c3cc(F)ccc3n3c(=S)[nH]nc23)c1` [Compound 129, N-(3-(7-Fluoro-5-oxo-1-thioxo-1,2-dihydro-[1,2,4]triazolo[4,3-a]-quinazolin-4(5H)-yl)propyl)-2-(3-methoxyphenyl)acetamide] has a Papp [6] of 311 ×10⁻⁶ cm/s.
With `COc1ccc(CC(=O)NCCCn2c(=O)c3cc(F)ccc3n3c(=S)[nH]nc23)cc1` [Compound 130, N-(3-(7-Fluoro-5-oxo-1-thioxo-1,2-dihydro-[1,2,4]triazolo[4,3-a]-quinazolin-4(5H)-yl)propyl)-2-(4-methoxyphenyl)acetamide] the “PAMPA” value [1] was 233 ×10⁻⁶ cm/s.
For `O=C(Cc1ccccc1C(F)(F)F)NCCCn1c(=O)c2cc(F)ccc2n2c(=S)[nH]nc12` [Compound 131, N-(3-(7-Fluoro-5-oxo-1-thioxo-1,2-dihydro-[1,2,4]triazolo[4,3-a]-quinazolin-4(5H)-yl)propyl)-2-(2-(trifluoromethyl)phenyl)-acetamide], the “PAMPA” value [1] was 825 ×10⁻⁶ cm/s.
With `N#Cc1ccccc1CC(=O)NCCCn1c(=O)c2cc(F)ccc2n2c(=S)[nH]nc12` [Compound 133, 2-(2-Cyanophenyl)-N-(3-(7-fluoro-5-oxo-1-thioxo-1,2-dihydro-[1,2,4]triazolo[4,3-a]quinazolin-4(5H)-yl)propyl)acetamide] the “PAMPA” value [1] was 156 ×10⁻⁶ cm/s.
For `CC(C)(C)OC(=O)Nc1ccc(CC(=O)NCCCn2c(=O)c3cc(F)ccc3n3c(=S)[nH]nc23)cc1` [Compound 135, tert-Butyl (4-(2-((3-(7-Fluoro-5-oxo-1-thioxo-1,2-dihydro-[1,2,4]-triazolo[4,3-a]quinazolin-4(5H)-yl)propyl)amino)-2-oxoethyl)-phenyl)carbamate], the “PAMPA” value [1] was 910 ×10⁻⁶ cm/s.
With `O=C(Cc1ccccn1)NCCCn1c(=O)c2cc(F)ccc2n2c(=S)[nH]nc12` [Compound 136, N-(3-(7-Fluoro-5-oxo-1-thioxo-1,2-dihydro-[1,2,4]triazolo[4,3-a]-quinazolin-4(5H)-yl)propyl)-2-(pyridine-2-yl)acetamide] the “PAMPA” value [1] was 68.0 ×10⁻⁶ cm/s.
With `O=C(Cc1cccnc1)NCCCn1c(=O)c2cc(F)ccc2n2c(=S)[nH]nc12` [Compound 137, N-(3-(7-Fluoro-5-oxo-1-thioxo-1,2-dihydro-[1,2,4]triazolo[4,3-a]-quinazolin-4(5H)-yl)propyl)-2-(pyridine-3-yl)acetamide] the “PAMPA” value [1] was 21.0 ×10⁻⁶ cm/s.
With `O=C(Cc1ccncc1)NCCCn1c(=O)c2cc(F)ccc2n2c(=S)[nH]nc12` [Compound 138, N-(3-(7-Fluoro-5-oxo-1-thioxo-1,2-dihydro-[1,2,4]triazolo[4,3-a]-quinazolin-4(5H)-yl)propyl)-2-(pyridine-4-yl)acetamide] the “PAMPA” value [1] was less than 1 ×10⁻⁶ cm/s.
For `CCCn1c(=O)c2cccc(F)c2n2c(=S)[nH]nc12` [Compound 139, 9-Fluoro-4-propyl-1-thioxo-2,4-dihydro-[1,2,4]triazolo[4,3-a]-quinazolin-5(1H)-one], the “ability” value [2] was “lacked a detectable level of cellular response”.
For `CCCn1c(=O)c2ccccc2n2c(SC)nnc12` [Compound 143, 1-(Methylthio)-4-propyl-[1,2,4]triazolo[4,3-a]quinazolin-5(4H)-one], the spindle bipolarity [7] was “significantly compromised”, the “ability” value [2] was “effectively induced rounded cells with apoptotic or aberrant chromosome morphologies” and the signs of toxicity [8] was “no signs of toxicity”.
With `CCCn1c(=O)c2cc(F)ccc2n2c(SC)nnc12` [Compound 144, 7-Fluoro-1-(methylthio)-4-propyl-[1,2,4]triazolo[4,3-a]-quinazolin-5(4H)-one] the “ability” value [2] was “induced mitotic arrest but at a somewhat reduced level”.
In the case of `CCCn1c(=O)c2cccc(F)c2n2c(SC)nnc12` [Compound 145, 9-Fluoro-1-(methylthio)-4-propyl-[1,2,4]triazolo[4,3-a]-quinazolin-5(4H)-one], the “ability” value [2] was “effectively induced rounded cells with apoptotic or aberrant chromosome morphologies”.
